{"source": "patent US20040009899A1", "about": "“Treating dominant disorders” (priority 2002, published 2004)", "key": {"R6/2 mice": {"test_system": "R6/2 mice", "assay": "Open field test to assess motility", "format": "in vivo, mouse", "details": "for level of motility (open field test): R6/2 mice", "procedure": "Open field test to assess motility: Each mouse was confined for 10 minutes in a Plexiglas locomotion chamber equipped with a laser source and detector. As the mouse passed between the laser source and detector, the laser beam was “broken” and the event was automatically recorded. The number of beam breaks for B6CBA mice treated with the HDs PNA oligomer was compared to that of saline-treated or untreated control B6CBA mice. This number was directly related to general activity of the mice.\nExperiments were conducted to determine whether PNA-mediated inhibition of mutant huntingtin expression increased survival and/or reversed features of pathophysiology. R6/2 and non-transgenic mice were divided into two groups of three to five mice each, and treated with either HDs or ACSF for approximately ten weeks, beginning at five to six weeks of age. Treated animals received a dose of 0.15 mg/kg of the HDs PNA oligomer, administered by continuous infusion through an Alzet pump. All ACSF-treated transgenic mice died by three months of age.\nIn other experiments, R6/2 mice were divided into five groups (designated groups 1-5) containing eight to ten animals each. Groups 1-4 received either saline (group 1) or a specific amount of HDs (groups 2-4). Group 5 included untreated R6/2 mice. A sixth group included untreated non-transgenic B6CBA control mice. At 8 weeks of age, each mouse was weighed to establish a weight stability baseline. Baselines for clasping behavior, motility, and motor skill were established at 9 weeks of age using the methods described in Example 1.\nAt 9 weeks of age, the mice in each group received saline (group 1) or HDs at 2.0 mg/kg, 5.0 mg/kg, or 20.0 mg/kg (groups 2, 3, and 4, respectively) by i.p. injection every 48 hours. The injections continued through 13 weeks of age (i.e., treatment for […]). Weight stability, clasping behavior, motility, and motor skill were assessed weekly during the treatment period. At the time of death or after the treatment period, the brain of each mouse was removed using standard methods. The brains were divided into hemispheres, and one hemisphere of each brain was saved for protein and mRNA analysis. The remaining hemispheres were fixed directly in 10% formalin for 5-7 days. After fixing, the brain hemispheres were weighed individually and processed for sectioning and pathophysiology."}, "GAPDH": {"test_system": "GAPDH", "assay": "Western immunoblot of GAPDH (non-targeted gene) in PNA-treated R6/1 mice", "format": "in vivo, mouse", "details": "any animal tested", "procedure": "Following the treatment period, mice were anesthetized with ether and sacrificed by cervical dislocation. Whole brains and livers were removed and placed in 0.9% saline. Striatum tissue was dissected from whole brains, and liver tissue was finely minced. The tissues were placed in separate 2 mL microfuge tubes on dry ice and then suspended in 20 volumes of RIPA buffer (50 mM Tris pH 8, 150 mM NaCl, 1 mM EDTA, 1 mM EGTA, 0.5% sodium deoxycholate, 0.1% SDS, 1% TritonX-100, 2 μg/mL leupeptin, 2 μg/mL aprotinin, 1 μg/mL pepstatin, 1 mM phenylmethylsulfonylfluoride) per gram of tissue. Suspended tissues were homogenized by sonication, and the homogenates were clarified by centrifugation at 12,000×g for 20 minutes at 4° C. Following centrifugation, the supernatants were removed and protein concentrations were quantified by Bradford assays using a BSA standard.\nImmunoblotting: Supernatants from the tissue homogenates were mixed with 1/6 volume of 6×SDS sample buffer (350 mM Tris pH 6.8, 10% SDS, 30% glycerol, 15% 2-mercaptoethanol, 0.012% bromophenol blue). Equal amounts of protein were directly loaded onto 10% acrylamide/0.05% bisacrylamide gels without heat denaturation. […] Protein bands were detected on film by chemiluminescence. […]"}}}
{"substance": "HDs: sense PNA oligomer, 14 residues, 5′-GGACTGCCGTGCCG-3′ (SEQ ID NO:3), specific for the expanded human HD allele (all peptide nucleic acid (PNA))", "values": [{"measurement": "level of motility (open field test)", "setting": "R6/2 mice; 2.0 mg/kg i.p. every 48 hours, compared to untreated R6/2 mice", "value": "no difference in motility"}, {"measurement": "level of motility (open field test)", "setting": "R6/2 mice; 5.0 mg/kg i.p. every 48 hours, lower than nontransgenic controls", "value": "increased as compared to untreated R6/2 mice"}, {"measurement": "level of motility (open field test)", "setting": "R6/2 mice; 20.0 mg/kg i.p. every 48 hours, lower than nontransgenic controls", "value": "increased as compared to untreated R6/2 mice"}, {"measurement": "motility as compared to non-transgenic animals", "setting": "R6/2 mice; surviving R6/2 mice, 0.15 mg/kg continuous infusion by Alzet pump", "value": "decline in motility"}, {"measurement": "inhibition of non-targeted genes such as GAPDH", "setting": "GAPDH", "value": "No measurable inhibition"}]}
